Drawing on patent publication US20220389009A1, “SUBSTITUTED 1,6-NAPHTHYRIDINE INHIBITORS OF CDK5” (Goldfinch Bio, Inc., priority 2019, published 2022), this text covers IC50 and CDK5/CDK2 specificity for 27 compounds.

Molecules are shown by their SMILES. A value given as a limit tells only on which side of the number the result lay.

Test [1] has as its target CDK2/CycA2 (Homo sapiens, UniProt P24941). The experiment in a line: CDK2 mobility shift assay (enzymatic activity of CDK2/CycA2). In kind it is biochemical. The conditions noted are these: 1.25 nM CDK2/CycA2, 37 μM ATP, FL Peptide 18, 120 min at room temperature; read-out: CDK2 IC50. The method in brief:
(§1)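 Carna CDK5/p25 (0.154 nM) or CDK2/CycA2 (1.25 nM) was preincubated 30 min with compound, ATP ([…] for CDK5; 37 μM for CDK2) and 10 mM MgCl2 in HEPES pH 7.5. The reaction was started with 1.5 μM FL peptide (29 for CDK5, 18 for CDK2) and run 60 min (CDK5) or 120 min (CDK2) at room temperature. Product was read by mobility shift, with IC50 from a 4-parameter fit.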

In test [2] the target is CDK5/p25 (Homo sapiens, UniProt Q00535). The experiment in a line: CDK5 mobility shift assay (enzymatic activity of CDK5/p25). In kind it is biochemical. The conditions noted are these: for IC50: 0.154 nM CDK5/p25, FL peptide 29, 60 min at room temperature, read-out: CDK5 IC50; for CDK5/CDK2 specificity: fold more active against CDK5 than CDK2. The method, boiled down:
as §1

CDK5/p25, sequence (Q00535 whole entry): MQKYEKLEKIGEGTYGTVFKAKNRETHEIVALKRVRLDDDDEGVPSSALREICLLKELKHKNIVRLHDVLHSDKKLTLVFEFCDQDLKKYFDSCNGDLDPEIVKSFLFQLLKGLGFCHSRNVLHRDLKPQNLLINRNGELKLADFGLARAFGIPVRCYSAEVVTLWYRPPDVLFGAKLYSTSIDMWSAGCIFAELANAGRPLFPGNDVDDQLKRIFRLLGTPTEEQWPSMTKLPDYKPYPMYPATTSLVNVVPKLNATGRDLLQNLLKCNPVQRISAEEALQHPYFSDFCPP
CDK5/p25, sequence (Q15078 99-307 partner limits assumed): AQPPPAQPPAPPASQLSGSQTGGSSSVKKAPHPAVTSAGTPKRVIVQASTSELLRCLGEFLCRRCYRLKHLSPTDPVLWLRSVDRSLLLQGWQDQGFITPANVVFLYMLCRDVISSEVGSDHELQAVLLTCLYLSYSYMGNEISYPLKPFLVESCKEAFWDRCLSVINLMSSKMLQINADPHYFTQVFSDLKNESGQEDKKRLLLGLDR

As for `CN(C)C(=O)c1ccn(-c2ccc(Nc3cc4nc(S(=O)(=O)C5CCN(CC6COC6)CC5)ccc4cn3)c(F)c2)n1` [Compound 338], the IC50 in test [1] is 100 to 1000 nM; in test [2], under 10 nM. The CDK5/CDK2 specificity result in test [2] is “+++ (greater than 100-fold more active against CDK5 than CDK2)”.

In the case of `CN1CCC(S(=O)(=O)c2ccc3cnc(Nc4ccc(-n5ccc(C(N)=O)n5)cc4F)cc3n2)CC1` [Compound 317, 1-(3-fluoro-4-[[2-(1-methylpiperidin-4-ylsulfonyl)-1,6-naphthyridin-7-yl]amino]phenyl)pyrazole-3-carboxamide], the IC50 was 100 to 1000 nM in test [1] and under 10 nM in test [2]. Further, the CDK5/CDK2 specificity entry in test [2] was “+++ (greater than 100-fold more active against CDK5 than CDK2)”.

Consider `Cc1cccc(Nc2cc3nc(C(C)(O)C4CCN(C)CC4)ccc3cn2)c1` (stereo not drawn) [Compound 341], for which, in test [1], the IC50 was 10 to 100 nM. For the same compound, in test [2], the IC50 is under 10 nM; the CDK5/CDK2 specificity entry was “++ (greater than 10-fold and less than or equal to 100-fold more active against CDK5 than CDK2)”.

Regarding `Cc1cc(OCCC(N)=O)ccc1Nc1cc2nc(S(=O)(=O)C3CCN(C)CC3)ccc2cn1` [Compound 258], the IC50 in test [1] is over 1000 nM; in test [2], under 10 nM. Also, the CDK5/CDK2 specificity entry in test [2] is “+++ (greater than 100-fold more active against CDK5 than CDK2)”.

In the case of `CCN1CCC(S(=O)(=O)c2ccc3cnc(Nc4ccc(-n5cccn5)cc4F)cc3n2)CC1` [Compound 384], the IC50 in test [1] was in the range of 100 to 1000 nM. Besides, in test [2], the IC50 is under 10 nM and the CDK5/CDK2 specificity entry was “+++ (greater than 100-fold more active against CDK5 than CDK2)”.

Take `CN1CCC(C(C)(O)c2ccc3cnc(Nc4ccc(-c5ccc(=O)n(C)c5)cc4F)cc3n2)CC1` (stereo not drawn) [Compound 346]: the IC50 in test [1] was over 1000 nM. In test [2], the IC50 lay in the range of 100 to 1000 nM; the CDK5/CDK2 specificity entry is “++ (greater than 10-fold and less than or equal to 100-fold more active against CDK5 than CDK2)”.

Consider `OC(c1ccc2cnc(Nc3ccc(-n4cccn4)cc3F)cc2n1)C1CCNCC1` (stereo not drawn) [Compound 149, (7-[[2-fluoro-4-(pyrazol-1-yl)phenyl]amino]-1,6-naphthyridin-2-yl) (piperidin-4-yl)methanol], for which the IC50 is over 1000 nM in test [1] and 10 to 100 nM in test [2]. In test [2], the CDK5/CDK2 specificity entry is “++ (greater than 10-fold and less than or equal to 100-fold more active against CDK5 than CDK2)”.

As for `CN1CCC(C(O)(c2ccc3cnc(Nc4ccc(-n5cccn5)cc4F)cc3n2)C(F)(F)F)CC1` (single isomer, unassigned) [Compound 343, 2,2,2-trifluoro-1-(7-((2-fluoro-4-(1H-pyrazol-1-yl)phenyl)amino)-1,6-naphthyridin-2-yl)-1-(1-methylpiperidin-4-yl)ethan-1-ol], the IC50 in test [1] is over 1000 nM; in test [2], 100 to 1000 nM. For the same compound, the CDK5/CDK2 specificity result in test [2] was “++ (greater than 10-fold and less than or equal to 100-fold more active against CDK5 than CDK2)”.

Turning to `O=C(c1ccc2cnc(Nc3ccc(-n4cccn4)cc3F)cc2n1)C1CCNCC1` [Compound 141, N-[2-fluoro-4-(pyrazol-1-yl)phenyl]-2-(piperidine-4-carbonyl)-1,6-naphthyridin-7-amine], in test [1], the IC50 is 10 to 100 nM. For the same compound, in test [2], the IC50 was under 10 nM; the CDK5/CDK2 specificity result is “++ (greater than 10-fold and less than or equal to 100-fold more active against CDK5 than CDK2)”.

As for `COc1cc(-c2ccc(Nc3cc4nc(C(C)(O)C5CCN(C)CC5)ccc4cn3)c(F)c2)ccn1` (stereo not drawn) [Compound 330], the IC50 in test [1] and in test [2] was over 1000 nM each time. Moreover, the CDK5/CDK2 specificity result in test [2] is “++ (greater than 10-fold and less than or equal to 100-fold more active against CDK5 than CDK2)”.

As for `CN1CCC(S(=O)(=O)c2ccc3cnc(Nc4ccc(N5CCCC5)cc4)cc3n2)CC1` [Compound 301], the IC50 in test [1] was 100 to 1000 nM. For the same compound, in test [2], the IC50 was under 10 nM and the CDK5/CDK2 specificity entry was “+++ (greater than 100-fold more active against CDK5 than CDK2)”.

`CN1CCC(S(=O)(=O)c2ccc3cnc(Nc4cnc5ccc(Cl)nn45)cc3n2)CC1` [Compound 286]: the IC50 in test [1] was over 1000 nM. In addition, in test [2], the IC50 is over 1000 nM and the CDK5/CDK2 specificity result is recorded as “+ (10-fold or less more active against CDK5 than CDK2)”.

With `COc1cc(Nc2cc3nc(S(=O)(=O)C4CCN(C)CC4)ccc3cn2)ccc1NS(C)(=O)=O` [Compound 259], the IC50 in test [1] lay in the range of 10 to 100 nM. In test [2], the IC50 was under 10 nM; the CDK5/CDK2 specificity result was “++ (greater than 10-fold and less than or equal to 100-fold more active against CDK5 than CDK2)”.

Consider `O=S(=O)(c1ccc2cnc(Nc3ccc(-n4ccc(CO)n4)cc3F)cc2n1)C1CCN(CC(O)CO)CC1` (stereo not drawn) [Compound 249], for which the 50% inhibitory concentration (IC50) in test [1] was 100 to 1000 nM. In test [2], the half-inhibitory concentration (IC50) is under 10 nM; the CDK5/CDK2 specificity entry was “++ (greater than 10-fold and less than or equal to 100-fold more active against CDK5 than CDK2)”.

As for `CN1CCC(C(C)(O)c2ccc3cnc(Nc4ccc(-c5cccnc5)cc4F)cc3n2)CC1` (stereo not drawn) [Compound 329], the values for the IC50 in test [1] and in test [2] were 10 to 100 nM and under 10 nM, respectively. Also, in test [2], the CDK5/CDK2 specificity entry is “++ (greater than 10-fold and less than or equal to 100-fold more active against CDK5 than CDK2)”.

As to `CN1CCC(S(=O)(=O)c2ccc3cnc(Nc4cccc(N5CCN(C)CC5)c4)cc3n2)CC1` [Compound 277], the IC50 in test [1] lay in the range of 100 to 1000 nM. In test [2], the IC50 is under 10 nM; the CDK5/CDK2 specificity entry is “++ (greater than 10-fold and less than or equal to 100-fold more active against CDK5 than CDK2)”.

Take `CN1CCC(C(=O)c2ccc3cnc(Nc4ccc(-n5cccn5)cc4F)cc3n2)CC1` [Compound 217, N-[2-fluoro-4-(pyrazol-1-yl)phenyl]-2-(1-methylpiperidine-4-carbonyl)-1,6-naphthyridin-7-amine]: the IC50 in test [1] and in test [2] was under 10 nM each time. Further, the CDK5/CDK2 specificity result in test [2] is “++ (greater than 10-fold and less than or equal to 100-fold more active against CDK5 than CDK2)”.

In the case of `CN1CCC(S(=O)(=O)c2ccc3cnc(Nc4ccc(-n5cncn5)cc4)cc3n2)CC1` [Compound 279], the IC50 in test [1] lay in the range of 100 to 1000 nM. In addition, in test [2], the IC50 is under 10 nM; the CDK5/CDK2 specificity entry is “++ (greater than 10-fold and less than or equal to 100-fold more active against CDK5 than CDK2)”.

With `COc1cc(-c2ccc(Nc3cc4nc(C(C)C5CCN(C)CC5)ccc4cn3)c(F)c2)ccn1` (stereo not drawn) [Compound 333], the IC50 in test [1] lay within 100 to 1000 nM. Besides, in test [2], the IC50 is under 10 nM and the CDK5/CDK2 specificity entry is recorded as “+++ (greater than 100-fold more active against CDK5 than CDK2)”.

For the compound `OCCN(c1ccc2cnc(Nc3ccc(-n4ccc(CO)n4)cc3F)cc2n1)C1CCNCC1` [Compound 105, 2-[[7-([2-fluoro-4-[3-(hydroxymethyl)pyrazol-1-yl]phenyl]amino)-1,6-naphthyridin-2-yl](piperidin-4-yl)amino]ethanol], the IC50 in test [1] lay within 100 to 1000 nM. In test [2], the IC50 was 10 to 100 nM; the CDK5/CDK2 specificity entry was “++ (greater than 10-fold and less than or equal to 100-fold more active against CDK5 than CDK2)”.

In the case of `CN1CCC(C(C)(O)c2ccc3cnc(Nc4cccc(N5CCCC5=O)c4)cc3n2)CC1` (stereo not drawn) [Compound 350], the IC50 in test [1] was 10 to 100 nM; in test [2], under 10 nM. In test [2], the CDK5/CDK2 specificity entry was “++ (greater than 10-fold and less than or equal to 100-fold more active against CDK5 than CDK2)”.

For `CN1CCC(C(C)(O)c2ccc3cnc(Nc4ccc(-c5cncnc5)cc4F)cc3n2)CC1` (stereo not drawn) [Compound 342], the IC50 in test [1] lay within 10 to 100 nM. Also, in test [2], the half-maximal inhibitory concentration (IC50) is under 10 nM; the CDK5/CDK2 specificity entry was “++ (greater than 10-fold and less than or equal to 100-fold more active against CDK5 than CDK2)”.

For the compound `CC(c1ccc2cnc(Nc3ccc(-c4noc(=O)[nH]4)cc3F)cc2n1)C1CCN(C)CC1` (racemic) [Compound 368], the IC50 in test [1] lay in the range of 100 to 1000 nM. In test [2], the IC50 is under 10 nM; the CDK5/CDK2 specificity result was “++ (greater than 10-fold and less than or equal to 100-fold more active against CDK5 than CDK2)”.

For the compound `CC(c1ccc2cnc(Nc3ccc(-c4cccnc4)cc3F)cc2n1)C1CCN(C)CC1` (stereo not drawn) [Compound 319], in test [1], the IC50 lay in the range of 100 to 1000 nM. Moreover, in test [2], the 50% inhibitory concentration (IC50) is under 10 nM; the CDK5/CDK2 specificity result was “++ (greater than 10-fold and less than or equal to 100-fold more active against CDK5 than CDK2)”.

For the compound `CC1CCN(c2ccc(Nc3cc4nc(S(=O)(=O)C5CCN(C)CC5)ccc4cn3)cc2)CC1` [Compound 308], the IC50 in test [1] lay within 100 to 1000 nM. Further, in test [2], the IC50 was under 10 nM and the CDK5/CDK2 specificity entry was “+++ (greater than 100-fold more active against CDK5 than CDK2)”.

For `CN1CCC(C(C)(F)c2ccc3cnc(Nc4ccc(-n5cccn5)cc4F)cc3n2)CC1` (single isomer, unassigned) [Compound 359, 2-[1-fluoro-1-(1-methylpiperidin-4-yl)ethyl]-N-[2-fluoro-4-(pyrazol-1-yl)phenyl]-1,6-naphthyridin-7-amine], the IC50 in test [1] fell in the range of 10 to 100 nM. For the same compound, in test [2], the IC50 was under 10 nM; the CDK5/CDK2 specificity entry was “++ (greater than 10-fold and less than or equal to 100-fold more active against CDK5 than CDK2)”.

For the compound `CN1CCC(S(=O)(=O)c2ccc3cnc(Nc4ccc(-c5ncon5)cc4F)cc3n2)CC1` [Compound 376], in test [1], the IC50 lay within 100 to 1000 nM. In addition, in test [2], the IC50 was 100 to 1000 nM and the CDK5/CDK2 specificity entry is on record as “+ (10-fold or less more active against CDK5 than CDK2)”.
